According to patent US10946024B2, “Method for treating cancer” (Epizyme, Inc., priority 2014, dated 2021):

Tested on: synovial sarcoma PDX (CTG-0771, CTG-0331)
Test: Tumor volume in mice bearing patient-derived xenografts (PDX) of synovial sarcoma, 35 days
Type: in vivo
Details: oral 125, 250 or 500/400 mg/kg for 35 days
Method: FIGS. 11A and 11C show mean in vivo tumor volumes for athymic nude mice bearing one of two different PDX of synovial sarcoma tumors. FIGS. 11B and 11D show percent survival for mice bearing a PDX. Mice were dosed with either vehicle (oral for 35 days), Compound A (oral: 125 mg/kg, 250 mg/kg, or 500/400 mg/kg for 35 days) or Doxorubicin (iv: 3 mg/kg, once a week for 3 weeks). FIGS. 11A and 11B show data from mice bearing PDX from high-grade spindle cell sarcoma. FIGS. 11C and 11D show data from mice bearing PDX.
Immunocompromised female mice (Taconic; NCr nude) were implanted unilaterally in the flank region with tumor fragments (5 mm×5 mm×5 mm) harvested from donor animals, each implanted from a specific passage lot (CTG-0331 and CTG-0771 at P4). When tumors reached approximately 100-300 mm^3, animals were matched by tumor volume into treatment and control groups and dosing initiated. Vehicle (0.5% NaCMC plus 0.1% Tween 80 in water) or Compound A (500 mg/kg for CTG-0331 and 500 mg/kg decreased to 400 mg/kg on Day 17 for CTG-0771) was administered orally BID at a dose volume of 10 μL/g for 35 days. Tumor size was measured twice weekly. On Day 35, up to 5 mice with the largest tumor burden were euthanized for tumor collection 3 hours after final dose, and flash frozen. […]

SMILES: CCN(c1cc(-c2ccc(CN3CCOCC3)cc2)cc(C(=O)NCc2c(C)cc(C)[nH]c2=O)c1C)C1CCOCC1 [Compound A]
- tumor volume: dose-related tumor volume decrease
